Patent publication US9566265B2, “Carbazole compounds and therapeutic uses of the compounds” (Incuron, LLC, priority 2008, dated 2017)
Read-outs that look alike come from different tables or passages of the source.

What was measured:
p53 = p53 activation assay, p53 responsive luciferase reporter cell line; assay type: cell-based, human; settings: for p53 activation, active or inactive carbazole: structural analysis, FIGS. 6 and 7
Description: The potency of a present carbazole compound is determined by measuring an ability of the compound to inhibit NF-κB activity or to activate p53. […] Theoretically, such assays of the dose-response effect of activator compounds can be described as a sigmoidal curve expressing a degree of activation as a function of concentration. The curve also theoretically passes through a point at which the concentration is sufficient to increase activity to a level that is 50% that of the difference between a baseline and the maximal activity in the assay. […] Determination of an EC50 value is made using conventional biochemical (acellular) assay techniques or cell-based assay techniques.
The potency of a carbazole compound is determined by measuring an ability of the compound to activate p53.
The p53 activation assay for determination of the EC50 value was performed as follows:
HT1080-L (human fibrosarcoma cells with ConALuc reporter)
RCC45ConALuc (human renal cell carcinoma cell line with ConALuc reporter)
1. Two types of standard cells were used, either HT1080-L or RCC45ConALuc cells. Both cell lines stably express a p53 responsive luciferase reporter construct.
2. HT1080-L cells were grown in DMEM medium containing 10% FBS. RCC45ConALuc cells were grown in RPMI medium containing 10% FBS (Pen/Strep can be added to a final concentration of 1%, if desired). Both cell lines were grown in a humidified incubator at 37° C. with 5% CO2. For normal culturing, both cell lines were split using 1× trypsin-EDTA at a ratio of 1:20 for HT1080-L and 1:5 for RCC45ConALuc cells every 3-4 days (when cells are 80-90% confluent).
3. A day before the experiment, the cells are trypsinized for about 5 minutes in 1× tripsin/EDTA solution in 37° C. incubator and plated in 96 well plates. HT1080-L cells were seeded at a density of 1×10^4/well in standard DMEM medium in a volume of 50 μl. RCC45ConALuc were seeded at a density of 2×10^4/well in the volume of 50 uL in standard RPMI medium.
4. The next day, various carbazole compounds were prepared by dilution of stock solutions in standard DMEM medium such that the cells were treated with the final chemical concentrations in Table 1 below. Stock solutions were made up in DMSO. Typically, chemicals were made up as 20 mM stock solutions.
5. Each tested compound used two rows of a 96-well plate, thus four compounds (e.g., W, X, Y, Z) were tested in one plate simultaneously. In addition to test compounds, each plate included positive and negative controls. As positive control, 9aa was used at a dose of 3 μM. As a negative control, DMSO was used in final concentration 0.1%.
1. Dilutions of chemicals added to the plate were made up as 2× concentrations in standard DMEM and added to corresponding well in a volume of 50 μl.
2. Chemicals were diluted in standard DMEM by two time serial dilutions starting from 40 μM (2× of highest concentration, e.g., 20 μM). For one cell line, the minimum volume was 125 μL of 2× working solution of chemical of each concentration in standard DMEM.
4. Sixteen hours following compound addition, all wells with the highest concentrations of compounds are checked microscopically for the presence of toxic effect, because death of cells caused by compounds may not allow detecting luciferase activity. If cytotoxocity is evident, other doses of the same compounds were checked for the presence of toxicity. The lowest dose causing toxic effect was recorded.
5. After microscopic examination, 15 μl of Bright Glo luciferase assay system were added to each well and after 5 min incubation at RT, the plates were read on a 96 well plate luminometer with a measurement time of 0.1 sec. A shaking step was included before measurement.
6. The folds of luciferase activation for each concentration of each chemical were calculated by dividing the detected luciferase activity at each chemical concentration by the average of the luciferase activity for the DMSO control on the same plate.

Bacillus subtilis = assay: antibacterial cytotoxicity assay, gram(+) bacteria (OD600); assay type: cell-based; settings: B. subtilis, 48 hours, over a range of potencies; FIG. 13B
Description: In vitro test to evaluate the effect of carbazole compounds on gram(-) and gram(+) bacteria. Two days prior to the start of the cytotoxicity assay, inoculate DH5-α and B. subtilis into 1 ml of corresponding media from glycerol stocks. Allow to grow during the course of the day at 37° C. with shaking. Streak each bacteria on the appropriate agar plates using a sterile inoculation loop and allow to grow overnight at 37° C. in the bacteria incubator. Using a sterile inoculation loop, pick a single colony of bacteria and inoculate 5 ml of the corresponding media in a 14 ml snap cap tube. Grow overnight ( 16 h) at 37° C. with shaking. […] Dilute 5 ml cultures of DH5-α and B. subtilis to an OD600 nm of 0.002, which corresponds to about 2×10^6 cells/ml in a volume sufficient for the experiment (dependent on the number of plates). Plate out 50 μl into each well of X 96-well plates (X=# plates needed for a given experiment). […] Chemicals for testing are prepared by dilution of stock solutions in LB Broth or Nutrient Broth for DH5-α and B. subtilis studies, respectively. Cells are treated with the final chemical concentrations presented in the scheme below (Table 2). Stock solutions are made up in DMSO. […] However, this concentration is dependent on the solubility of a given chemical and actual stock concentrations must be noted at time of experiment. Each library chemical to be tested requires 2 rows of a 96-well plate, thus 4 chemicals ([…]) can be tested in one plate simultaneously. In addition to test chemicals, each plate should include positive and negative controls. As positive control, ampicillin is used at 100 μg/ml. […] Dilutions of chemicals to be added to the plate are made up as 2× concentrations in appropriate bacteria media and added to corresponding wells in a volume of 50 μl. […] This process is repeated until all 10 2× doses are prepared. […] Following the addition of carbazole compounds to 96-well plates containing bacteria, plates are transferred to the 37° C. bacteria incubator for 48 hours. After the incubation, the OD600 mm for each well of the 96-well plates will be measured. […] The % DMSO control is plotted vs compound concentration to generate sigmoid shaped curves. After three runs are complete, the raw data for all three runs is used for IC50 calculations.

HB 101 E. coli = assay: antibacterial cytotoxicity assay, gram(−) bacteria (OD600); assay type: cell-based; settings: 48 hours, over a range of potencies, FIG. 13A
[1] = test system: Plasmodium falciparum (strain D10); assay: Plasmodium falciparum in vitro culture, infected erythrocytes; assay type: cell-based; settings: tested at 29, 57, 143 nM or 143 nM only; FIG. 12
Description: In particular, the effect of carbazole compounds on the malaria parasite was tested by culturing Plasmodium falciparum (strain D10) in vitro in the presence or absence of test compounds.
In each experiment, 1000 erythrocytes were assessed microscopically to determine the number of infected cells.

[2] = test system: Caki1 human renal cell carcinoma cells; assay: Caki1 renal cell carcinoma xenograft efficacy test; settings: Day 24 (end of treatment); oral gavage 5 day on/2 day off; Example 7 30, Example 15 5, Example 13 25, Sunitinib 40 mg/kg
Description: In an efficacy test using these three compounds, athymic nude mice were inoculated subcutaneously with a suspension of Caki1 human renal cell carcinoma cells into both rear flanks. When at least one tumor in a mouse reached 20-50 mm^3, treatment was commenced. […] As a positive control, one group was treated with 40 mg/kg Sunitinib, an approved drug for the treatment of renal cell carcinoma. Treatment was given for 4 weeks on a 5 day on/2 day off schedule. After treatment was completed, mice were monitored for an additional 4 weeks to determine how quickly tumor growth returned to normal.

Bloodstream T. brucei = assay: T. brucei bloodstream form in vitro killing; assay type: cell-based, Trypanosoma brucei; settings: Trypanosoma brucei, read-out: IC50 (concentration that killed 50% of the parasites); bloodstream stage, 48 hrs of culture
Description: Preliminary T. brucei inactivation experiments were performed in vitro. The life cycle of T. brucei involves a “procyclic” developmental stage in a tsetse fly, and a “bloodstream” form in humans. All studies were performed with the bloodstream stage of the parasite, because it is the disease-causing developmental stage.
Suramin, a conventional anti-HAT drug, was used as a positive control.
Bloodstream T. brucei was seeded (3×10^3 cells/mL) in 24-well (500 uL of the media per well) plate. […] Control cultures received equal volumes of DMSO.

[3] = Homo sapiens, 16 h, HT1080-L or RCC45ConALuc reporter cells, 16 h, read-out: EC50 value (p53 activation)
[4] = HT1080-L or RCC45ConALuc reporter cells, 16 h, read-out: EC50 value (p53 activation)
[5] = Table 3, test compounds of the malaria experiment
[6] = Homo sapiens, HT1080-L or RCC45ConALuc reporter cells, 16 h, read-out: EC50 value (p53 activation)

Work on `CCN(CC)CCn1c2ccc(C(C)=O)cc2c2cc(C(C)=O)ccc21` [Compound 3a] yielded an EC50 (p53; [3]) of 0.29 µM.
With `CC(=O)c1ccc2c(c1)c1cc(C(C)=O)ccc1n2CCCN(C)C` [Compound 3b] the EC50 (p53; [3]) was 0.49 µM.
Work on `CC(=O)c1ccc2c(c1)c1cc(C(C)=O)ccc1n2CCC1CCCN1C` (stereo not drawn) [Compound 3e] yielded an EC50 (p53; [3]) of 0.78 µM.
`CCC(=O)c1ccc2c(c1)c1cc(C(=O)CC)ccc1n2CCCN(C)C` [Compound 7d] was tested, and the EC50 (p53; [3]) was 0.64 µM.
With `CC(=O)c1ccc2c(c1)c1c3c(ccc1n2CCC1CCCN1C)C(=O)CC3` (stereo not drawn) [Compound 18c-1] the EC50 (p53; [3]) was 0.08 µM, the “antibacterial effect” value (Bacillus subtilis) was “antibacterial effect” and the “antibacterial effect” value (HB 101 E. coli) was “antibacterial effect”.
Work on `CC(=O)c1ccc2c(c1)c1c3c(ccc1n2CC[C@@H]1CCCN1C)C(=O)CC3` [Compound 18c-2] yielded an EC50 (p53; [3]) of 0.1 µM.
For `CCN(CC)CCn1c2ccc(C(C)=O)cc2c2cc(C(C)=O)c(O)cc21` [Compound 19a], the EC50 (p53; [3]) was 0.4 µM.
`CC(=O)c1cc2c3c4c(ccc3n(CCCN(C)C)c2cc1O)C(=O)N(C)C4` [Compound 19e] gave an EC50 (p53; [3]) of 0.07 µM.
With `CCN(CC)CCn1c2ccccc2c2cc(C(C)=O)c(O)cc21` [Compound 22, 3-Acetyl-2-hydroxy-9-N,N-diethylaminoethylcarbazole] the EC50 (p53; [4]) was 0.53 µM.
`CN(C)CCCN(c1ccccc1)c1ccc2c(c1)CCC2=O` [Compound 200, reference compound] was tested, and the “p53 activation, active or inactive carbazole” value (p53) was “inactive”.
For `CCN(CC)CCn1c2ccc(C(C)=O)cc2c2cc(C(C)=O)ncc21` [Compound 300, reference compound], the “p53 activation, active or inactive carbazole” value (p53) was “active”.
`CCN(CC)CCn1c2ccccc2c2cc(C(C)=O)ncc21.Cl` [Compound 400, reference compound] was tested, and the “EC50, μM (p53 activation assay)” value (p53; [5]) was “Inactive” and the “anti-malarial activity, parasitemia reduction” value [1] was “no parasitemia reduction”.
`CCCCCn1c2ccc(C(C)=O)cc2c2c3c(ccc21)C(=O)CC3` [Compound 500, reference compound] was tested, and the “EC50, μM (p53 activation assay)” value (p53; [5]) was “Inactive” and the “anti-malarial activity, parasitemia reduction” value [1] was “no parasitemia reduction”.
In the case of `CC(=O)c1ccc2c(c1)c1cc(C(C)=O)ccc1n2CCC1CCCN1C` (stereo not drawn) [Example 2, 1,1′-{9-[2-(1-Methylpyrrolidin-2-yl)ethyl]-9H-carbazole-3,6-diyl}diethanone], the EC50 (p53; Homo sapiens, read-out: EC50, μM (p53 activation assay)) is reported as 0.64 µM, the EC50 (p53; [6]) is reported as 0.64 µM and the “p53 activation, active or inactive carbazole” value (p53) is reported as “active”. The “anti-malarial activity, parasitemia reduction” value [1] was “anti-malarial activity comparable to quinacrine”.
In the case of `CC(=O)c1cc2c3c4c(ccc3n(CCCN(C)C)c2cc1O)C(=O)CC4` [Example 4, 9-Acetyl-6-[3-(dimethylamino)propyl]-8-hydroxy-1,6-dihydrocyclopenta[c]carbazol-3(2H)-one], the EC50 (p53; Homo sapiens, 16 h, read-out: EC50 value (p53 activation, μM)) is reported as 0.07 µM, the “antibacterial effect” value (Bacillus subtilis) is reported as “antibacterial effect” and the “antibacterial effect” value (HB 101 E. coli) is reported as “antibacterial effect”.
With `CCCNCCCn1c2ccc(C(C)=O)cc2c2c3c(ccc21)C(=O)CC3` [Example 6, 9-Acetyl-6-[3-(propylamino)propyl]-1,6-dihydrocyclopenta[c]carbazol-3(2H)-one] the EC50 (p53; [4]) was 0.24 µM.
`CC(=O)c1cc2c3cc(C(C)=O)c(O)cc3n(CCCN(C)C)c2cc1O` [Example 12] was tested, and the “antibacterial effect” value (Bacillus subtilis) was “antibacterial effect” and the “antibacterial effect” value (HB 101 E. coli) was “antibacterial effect”.
With `CCCNCCCn1c2ccc3c(c2c2c4c(ccc21)C(=O)CC4)CCC3=O` [Example 14] the EC50 (p53; [3]) was 0.05 µM.
Molecule `CN(C)CCCn1c2ccc([N+](=O)[O-])cc2c2cc([N+](=O)[O-])ccc21` [Example 21] has an EC50 (p53; [4]) of 0.83 µM.
`CCN(CC)CCCn1c2ccc([N+](=O)[O-])cc2c2cc([N+](=O)[O-])ccc21` [Example 23] was tested, and the EC50 (p53; [6]) was 0.88 µM.
In the case of `O=[N+]([O-])c1ccc2c(c1)c1cc([N+](=O)[O-])ccc1n2CCCN1CCCC1` [Example 24], the EC50 (p53; [6]) is reported as 0.78 µM.
`CNCCCn1c2ccc([N+](=O)[O-])cc2c2cc([N+](=O)[O-])ccc21` [Example 25] was tested, and the EC50 (p53; [6]) was 0.88 µM.
With `CCN(CC)CCn1c2ccc(C(=O)NC)cc2c2cc(C(=O)NC)ccc21` [Example 27] the EC50 (p53; [3]) was 0.54 µM.
`CCN(CC)CCCC(C)Nc1c2ccc(Cl)cc2nc2ccc(OC)cc12` (stereo not drawn) [Quinacrine, reference compound] gave an EC50 (p53; Homo sapiens, Table 3, test compounds of the malaria experiment, read-out: EC50, μM (p53 activation assay)) of about 5 µM.
With `CCN(CC)CCNC(=O)c1c(C)[nH]c(/C=C2\C(=O)Nc3ccc(F)cc32)c1C` [Sunitinib, reference compound] the “tumor growth inhibition compared to the vehicle control” value [2] was 42%.
`Cc1ccc(C(=O)Nc2ccc(S(=O)(=O)O)c3cc(S(=O)(=O)O)cc(S(=O)(=O)O)c23)cc1NC(=O)c1cccc(NC(=O)Nc2cccc(C(=O)Nc3cc(C(=O)Nc4ccc(S(=O)(=O)O)c5cc(S(=O)(=O)O)cc(S(=O)(=O)O)c45)ccc3C)c2)c1` [Suramin, reference compound] showed an IC50 (Bloodstream T. brucei) of over 300 nM.
